Source: patent US20240269158A1, “THERAPEUTIC AGENTS AND METHODS FOR TREATMENT OF BARTONELLOSIS” (THE ADMINISTRATORS OF THE TULANE EDUCATIONAL FUND, priority 2021, published 2024)
Read-outs that look alike come from different tables or passages of the source.

Tests used:
B. henselae [1] = test: MIC assay in liquid culture media (OD600); format: cell-based, Bartonella henselae; details: Bartonella henselae, read-out: MIC
Description: (§1) The B. henselae strains used were San Antonio 2, 267HO04, a human clinical isolate and B. vinsonii subsp. berkhoffii. Both the bacteria were initially grown on tryptic soy agar (TSA) supplemented with 5% defibrinated sheep blood plates that were either pre-made (Remel, R01198) or homemade, in a humidified atmosphere at 37° C. with 5% CO2 for 7 days. For the preparation of liquid cultures, an individual well-grown colony from the plate was resuspended in 15 ml Falcon tubes containing 3 mL of either Schneider's insect media supplemented with 10% FBS, or Grace's insect media (Gibco, 11605-094) supplemented with 10% FBS, or BAPGM serum-free liquid media. The cultures grew for 7 more days in the atmosphere as above without shaking. The number of viable bacteria was determined by either plating serial dilutions of the culture on plates for CFU or by live/dead staining. Before every experiment, bacteria were mixed well and passed through 22-gauge needle to break large clumps of bacteria.
(§2) Optical density (OD) of 7-day old bacterial liquid culture that was grown from an individual colony was measured using a spectrophotometer (Bio-Rad, SmartSpec 300, 170-2501). Bacterial culture was then diluted down to an OD of 0.1 ? 3×10^8 cfu/ml with the respective media.
(§3) To determine the MIC of the antibiotics and for the visualization of the bacterial growth, a clear 96-well plate was used. Into each well of a 96-well plate, 50 μl of the 0.1 OD bacterial culture and 50 μl of the liquid media containing antibiotics were added to the wells bringing the total volume to 100 μl of 0.05 OD bacteria (CFU ? 1.5×10^7) in each well. Wells containing only bacteria with solvent used in the dilution of the antibiotics served as a positive control to verify the growth of bacteria. As a negative control, wells containing only media and solvents were used. Each concentration of diluted antibiotic was run in 4 replicates to minimize the error rate. The 96-well plate was covered with the lid and incubated at 37° C. with 5% CO2. OD of the culture was read after 48 hrs and 96 hrs using a hybrid multi-mode microplate reader (Biotek, Synergy H4 hybrid reader) at OD600. The assay was repeated three times.
(§4) Therapeutic agent stocks were prepared in the following solvents: 10 mg/ml of ceftriaxone (USP), doxycycline (Fisher scientific, D9891-1G), gentamicin (Fisher scientific, 1405-41-0), ampicillin (Fisher scientific, 69-52-3) and azlocillin (Flightpath) in sterile cell culture grade water, whereas 5 mg/ml of azithromycin (Sigma, PZ0007-5MG) was dissolved in sterile cell culture grade DMSO. Antibiotics were then aliquoted and stored at either −80° C. or −20° C. until further use. On the day of assay, these stock concentrations were diluted to 1 mg/ml and 100 μg/ml in the respected bacterial culture media for MIC and cell-free, liquid culture MBC assays. For the DH82 cell-based MBC assay, antibiotics were diluted in EMEM media supplemented with 15% heat inactivated FBS.
(§5) The determination of susceptibility to therapeutic agents was performed in liquid culture media. Six different therapeutic agents were tested with multiple different concentrations against B. henselae and B. vinsonii. Therapeutic agent concentrations tested were as follows: Ceftriaxone 0.001, 0.01, 0.1, 0.3, 0.5, 1, 2, and 5 μg/ml; doxycycline 0.001, 0.01, 0.1, 0.3, 0.5, 1, 2, 5, and 10 μg/ml, gentamicin: 0.01, 0.1, 0.3, 0.5, 1, 2, 4, 8, and 16 μg/ml, and azithromycin: 0.001, 0.005, 0.02, 0.1, 0.3, 0.5, 1, 2, 5, and 10 μg/ml, were tested based on previous antibiotic susceptibility studies. The following azlocillin dilutions were included: 0.001, 0.005, 0.01, 0.02, 0.5, 1, 2, and 5 μg/ml. The ampicillin dilutions included were as follows: 0.001, 0.005, 0.01, 0.02, 0.5, 1, 2, 4, and 8 μg/ml. Both the species of Bartonella were susceptible to all the antibiotics that were used in BAPGM and Grace's culture liquid mediums. […]

B. henselae [2] = test: Cell-free, liquid culture MBC assay; format: cell-based, Bartonella henselae; details: Bartonella henselae, 96 hrs, plated on blood agar, read-out: MBC
Description: as §1
(§6) Briefly, the bacterial culture that was treated with therapeutic agents for 96 hrs was collected into a 1.5 ml microcentrifuge tubes and centrifuged at 7000 rpm for 10 min. The supernatant was removed, and the bacterial pellet was washed with 1×PBS twice. The bacterial pellet was then resuspended in 100 μL of 1×PBS, plated onto blood agar plates and incubated at 37° C. with 5% CO2 for about 14 days. This assay was repeated three times with all the 6 different antibiotics (azlocillin, azithromycin, ceftriaxone, doxycycline, gentamicin and ampicillin) and at different concentrations.
as §4
For this assay, both B. henselae and B. vinsonii were grown in Grace's insect media and were tested against all of the 6 antibiotics (ceftriaxone, doxycycline, gentamicin, azithromycin, azlocillin, ampicillin).

B. vinsonii [3] = test: MIC assay in liquid culture media (OD600); format: cell-based, B. vinsonii subsp. berkhoffii; details: Grace's insect media, read-out: MIC
Description: as §1, §2, §3, §4, §5

[4] = system: B. henselae and B. vinsonii; test: Cell-free MBC assay, summary over both species; format: cell-based, Bartonella; details: both species; Grace's insect media
Description: as §6
(§7) For this assay, both B. henselae and B. vinsonii were grown in Grace's insect media and were tested against all of the 6 antibiotics (ceftriaxone, doxycycline, gentamicin, azithromycin, azlocillin, ampicillin). […] However, ceftriaxone, gentamicin, azithromycin, and azlocillin were all bactericidal and completely eliminated the growth at concentrations below 10 µg/ml. Table 2 provides comparison of MBCs for B. henselae and B. vinsonii strains in cell-free liquid culture medium determined by incubating the bacteria with antibiotics in a 96-well plate and plating on tryptic soy agar supplemented with 5% sheep blood. Additionally, MBC for B. henselae determined by DH82 cell-based assay (right column) is provided.

B. vinsonii [5] = test: Cell-free, liquid culture MBC assay; format: cell-based, B. vinsonii subsp. berkhoffii; details: 96 hrs, plated on blood agar, read-out: MBC
Description: as §1, §6, §4, §7

[6] = system: intracellular B. henselae in DH82 cells; test: DH82 cell-based MBC assay (coculture); set-up: species or system Bartonella henselae (canine DH82 cells); details: Bartonella henselae; B. henselae; DH82 cell-based assay; 96 hours; read-out: MBC
Description: DH82 are a canine cell line having a macrophage-like morphology. Cells were initially cultured in T75-Flasks (Corning, 430641U) until confluency was reached and were split at a ratio of 1:4 for every 2-3 days. Cells were then seeded into either 24-well cell culture plates (Corning, 3526) for coculture assay or 8-well chamber slides (Millipore #PEGGS0816) for immunofluorescence assays. A total of 50,000 cells were seeded into each well of a 24-well plate or per chamber of an 8-well chamber slide with EMEM with 15% FBS and incubated for 24-48 hours before infections.
as §4
Bacteria (B. henselae) that were grown in Grace's insect media, were centrifuged at 7000 rpm for 10 min. The supernatant was removed and washed with 1×PBS for three times. After the washes, pellet was resuspended in EMEM media supplemented with 15% heat inactivated FBS. This bacterial suspension was then added to DH82 cells at a multiplicity of infection (MOI) of 1:50 and incubated for 2 hours. After 2 hours, unbound bacteria were removed by washing the cells with only EMEM media 3 times each 15 min wash. Cells were then incubated with EMEM+15% FBS media at 37° C. with 5% CO2 for 48 hours.
After 48 hrs of incubation, the media was removed from the cells and the therapeutic agents that were diluted in EMEM+15% FBS was added. Each therapeutic agent was diluted at 11 different concentrations (16, 8, 4, 2, 1, 0.5, 0.25, 0.125, 0.062, 0.031, 0.0156 μg/ml), as described above and incubated for 96 hours. […] The bactericidal activity of the therapeutic agents were then evaluated by plating the lysed cells on blood agar plates. Briefly, infected DH82 cells were initially washed for 30 min twice to remove the antibiotics that were added. Later, cells were osmotically lysed by adding 1 ml of sterile ice-cold distilled water and incubated for 5 min on ice. The lysed cells were then plated onto blood agar plates and incubated at 37° C. with 5% CO2 for about 10 days to evaluate the growth of viable B. henselae. This experiment was conducted in duplicates and repeated twice with all 6 antibiotics including 11 different concentrations. The untreated infected cells were used as a positive control and untreated uninfected cells served as a negative control. The CFU counts are presented as average±standard deviation.
To evaluate the bactericidal activity and to determine if these antibiotics could penetrate the eukaryotic […], a new DH82 cell-based coculture system was utilized. […] Uninfected cells stained with primary rabbit B. henselaehyperimmunized polyclonal (primary) and goat anti-rabbit IgG Alexa fluor 594 (secondary) antibodies were used as a negative control. As an isotype control, DH82 cells infected with B. henselae and incubated with primary rabbit IgG were used.

B. henselae [7] = details: cited from earlier work
B. henselae [8] = details: E-test methodology or agar dilution method; cited from earlier work

In the case of `CC1(C)S[C@@H]2[C@H](NC(=O)[C@H](N)c3ccccc3)C(=O)N2[C@H]1C(=O)O` [Ampicillin, ampicillin], the MIC (B. henselae [1]; Grace's insect media) is reported as 0.02 to 0.1 µg/mL, the MBC (B. henselae [2]) is reported as > 8 µg/mL and the MIC (B. vinsonii [3]) is reported as 0.01 to 0.02 µg/mL. The “concentration that did not completely inhibit the growth of bacteria” value [4] was > 8 µg/mL, the MBC (B. vinsonii [5]) was > 8 µg/mL and the MBC [6] was > 16 µg/mL.
In the case of `C[C@H]1c2cccc(O)c2C(=O)C2=C(O)[C@]3(O)C(=O)C(C(N)=O)=C(O)[C@@H](N(C)C)[C@@H]3[C@@H](O)[C@@H]21` [Doxycycline, doxycycline], the MIC (B. henselae [1]; BAPGM) is reported as 0.01 to 0.1 µg/mL, the MIC (B. henselae [1]; Grace's insect media) is reported as 0.01 to 0.1 µg/mL and the MIC (B. henselae [1]; Schneider's insect medium) is reported as > 0.3 µg/mL. For the same compound, the MBC (B. henselae [2]) was > 10 µg/mL, the MIC (B. vinsonii [3]) was 0.01 to 0.1 µg/mL and the “concentration that did not completely inhibit the growth of bacteria” value [4] was > 10 µg/mL. For the same compound, the MBC (B. vinsonii [5]) was > 10 µg/mL and the MBC [6] was > 16 µg/mL.
For `O=C(O)c1cn(C2CC2)c2cc(N3CCNCC3)c(F)cc2c1=O` [ciprofloxacin], the “activity against growing bacterial culture” value (B. henselae [7]) is given as “effective” and the “activity against stationary phase B. henselae” value (B. henselae [7]) is given as “very poor activity”.
In the case of `CC[C@H]1OC(=O)[C@H](C)[C@@H](O[C@H]2C[C@@](C)(OC)[C@@H](O)[C@H](C)O2)[C@H](C)[C@@H](O[C@@H]2O[C@H](C)C[C@H](N(C)C)[C@H]2O)[C@](C)(O)C[C@@H](C)C(=O)[C@H](C)[C@@H](O)[C@]1(C)O` [crythromycin], the “activity against growing bacterial culture” value (B. henselae [7]) is given as “effective” and the “activity against stationary phase B. henselae” value (B. henselae [7]) is given as “very poor activity”.
For `CO[C@H]1/C=C/O[C@@]2(C)Oc3c(C)c(O)c4c(O)c(c(/C=N/N5CCN(C)CC5)c(O)c4c3C2=O)NC(=O)/C(C)=C\C=C\[C@H](C)[C@H](O)[C@@H](C)[C@@H](O)[C@@H](C)[C@H](OC(C)=O)[C@@H]1C` [rifampin], the “inhibition in the growth of B. henselae in vitro” value (B. henselae [8]) is listed as “Inhibition in the growth”, the “activity against growing bacterial culture” value (B. henselae [7]) is listed as “effective” and the “activity against stationary phase B. henselae” value (B. henselae [7]) is listed as “very poor activity”.
